In patent US20210186947A1, “TOMM6-INTERACTING EXTRACTS AND COMPOUNDS FOR USE IN THE TREATMENT AND PROPHYLAXIS OF NERVOUS SYSTEM DISEASES, ATHEROSCLEROSIS, HEPATITIS B INFECTION AND HUMAN PAPILLOMA VIRUS (HPV) INFECTION” (ETH ZURICH, priority 2018, published 2021):

Legend:
[1] = Measurement of serum level in rats by HPLC; assay type: in vivo, Sprague Dawley rats
Protocol: Serum concentrations of alizarin were determined with serum isolated from the blood of male and female German shepherd dogs (age: 8-9 months) taken at different time points (0.5 h, 1 h, 2 h, 4 h, 6 h, 8 h, 24 h) after oral intake of the indicated doses for 4 weeks. In addition, serum concentrations of alizarin (Compound-1) were determined in male and female Sprague Dawley rats (body weight: 200-250 g) treated for 1 month and/or three months by oral gavage of alizarin at a once daily dose of 100 mg/kg, 50 mg/kg, 25 mg/kg and 12.5 mg/kg. Serum proteins were removed by acetonitrile precipitation, and alizarin was extracted by chloroform before separation on an HPLC-C18 column (Poroshell 120 EC-C18, 3.0×50 mm, Agilent) with an HPLC system (Agilent 1100 Series) and detection at OD245 nm. For quantitative determination of Compound-7 and Compound-10F in rat and dog serum, serum proteins were also removed by acetonitrile precipitation before HPLC analysis as detailed above and detection at OD254 nm.

[2] = system: angiotensin II AT2 receptor (AT2R, AGTR2); test: AT2R protein aggregation assay in HEK cells, immunoblot; assay type: cell-based, human; conditions: 10 microM for 72 h
Protocol: Proteins were also extracted from yeast cells and HEK cells expressing the indicated protein (i.e. HBsAg or AGTR2) as described above. Neuronal cell loss and hyperphosphorylated Tau in hippocampi of 15 months-old Tg2576 mice subjected to the CUMS protocol for 3 months was determined with crude homogenates of dissected hippocampi by direct binding assay with neuron-specific [^125I]-labeled anti-NeuN antibody (MAB377, clone A60, EMD Millipore, Merck KGaA, Darmstadt, Germany) and [^125I]-labeled AT8 antibody similarly as described (AbdAlla et al., J. Biol. Chem. 284, 6554-6565 (2009)).
In the second non-Abeta-based protein aggregation assay, different plant extracts were tested in a mammalian cell system, which analyzed the protein aggregation of the angiotensin II AT2 receptor (AT2R, AGTR2) protein in human embryonic kidney (HEK) cells. The system has physiological relevance because this cellular system is capable to reproduce AT2R protein aggregation, which also occurs in brains of AD patients and AD animal models (AbdAlla et al., J. Biol. Chem. 284, 6554-6565 (2009); AbdAlla et al., J. Biol. Chem. 284, 6566-6574 (2009)). The AT2 receptor in human embryonic kidney (HEK) cells forms stable dimers/oligomers under pro-oxidant conditions, which are resistant to urea-containing reducing SDS-PAGE (FIG. 2A, and AbdAlla et al., J. Biol. Chem. 284, 6566-6574 (2009)). […]

[3] = Tolerability / toxicity in dogs during four weeks of oral treatment; assay type: in vivo; conditions: once daily oral dose up to 6 mg/kg/d
[4] = Sub-chronic oral toxicity in rats; assay type: in vivo, Sprague Dawley rats
Protocol: Sub-chronic toxicity studies in dogs (German Shepherd dogs) and rats (Sprague Dawley rats) were performed by the Center of Applied Analytical and Veterinary Studies, Cairo, Egypt.
The oral toxicity of alizarin (Compound-1) in rats was determined in a sub-chronic toxicity study. Rats were treated for 3 months with a once daily oral dose of alizarin of 25 mg/kg/day, 50 mg/kg/day and 100 mg/kg/day. […] The good tolerability of alizarin in rats and dogs is supported by previous observations in humans, which document that long-term treatment for several years with alizarin and alizarin-containing plant extracts is not toxic and was previously used to prevent recurrence of calcium-containing urinary stones (Lorenz et al., Methods Find. Exp. Clin. Pharmacol. 7, 637-643, 1985). Taken together, alizarin has good oral bioavailability and a wide therapeutic window.
Pharmacokinetic data of Compound-7 were determined as another representative TOMM6/Tomm6 inducer with a different chemical structure than alizarin (Compound-1). […] The oral bioavailability of Compound-7 in dogs was much higher than in rats because oral doses of Compound-7 required to achieve equivalent peak serum concentrations were approximately 10-fold higher in rats compared to dogs (FIG. 20B). Again, this observation is in agreement with the equivalent surface area dosage rule, according to which rats and mice usually require a 10-12-fold higher dose than dogs and humans. […] This second peak could reflect enterohepatic recirculation of Compound-7.

Compound: O=C1c2ccccc2C(=O)c2c1ccc(O)c2O [Compound-1, 1,2-dihydroxyanthraquinone]
- oral bioavailability / serum concentrations after oral intake ([1]; rats): achieves therapeutic serum concentrations
- oral doses required to achieve equivalent peak serum concentrations, higher in rats compared to dogs ([1]; rats vs dogs): approximately 10 fold
- aggregation of the AT2 receptor [2]: inhibited the aggregation of the AT2 receptor
- adverse effects (behaviour, food intake, weight gain, cardiovascular parameters, blood cells, clinical chemistry) [3]: did not induce any detectable adverse effects
- histopathology of heart, liver, kidney ([4]; rats, 3 months, once daily oral 100 mg/kg): did not show any detectable alterations
- adverse effects on body, liver, heart and kidney weight, serum calcium, creatinine, BUN, ALT, AST ([4]; rats, 3 months, once daily oral 25, 50 and 100 mg/kg/day): did not find any significant adverse effects
- difference between therapeutic and toxic doses (therapeutic index) ([4]; therapeutic dose 10 mg/kg once daily in rodent models): more than 10 fold
